In patent US4914096A, “6-aryl-substituted-4H-thieno(2,3-e)(1,2,4)triazolo(3,4-c)(1,4)diazepines” (priority 1989, dated 1990):
Read-outs that look alike come from different tables or passages of the source.

Assays:
[1] = test system: PAF-induced human platelet aggregation; test: Platelet Aggregation Inhibition Assay test (PAIA test); assay type: cell-based; details: C-16 PAF 0.1 μM or 0.01 μM; human platelet rich plasma
Description: All of the compounds of formula I, as well as their pharmaceutically acceptable acid addition salts, are useful as platelet activating factor inhibitors as indicated by their ability to inhibit platelet activating factor (PAF)-induced human platelet aggregation in vitro according to the Platelet Aggregation Inhibition Assay test (PAIA test) as follows:
Human subjects are kept aspirin free for one week and fasted overnight. Platelet rich plasma (PRP) is prepared by centrifugation (200×g.) of freshly drawn blood, anti-coagulated within 0.38% sodium citrate (final concentration). Platelet count is adjusted to 250,000 per μl using platelet poor plasma (PPP) obtained by a second centrifugation (700×g.) of the blood sample. An aliquot (0.38 ml) of the PRP is dispensed into cuvettes and maintained at room temperature (22° C.) until used (but for not more than two hours). […] The aggregation response is quantitated by determining the area under the curve (AUC). The AUC calculated for the inducing agent alone is considered to be one hundred percent. The potential percent inhibition of the aggregation response is determined by dividing the AUC generated in the presence of the compound by the AUC of the inducing agent alone, multiplying by 100 and then subtracting from 100.

[2] = target: T1, Human Platelet PAF Receptor (Homo sapiens, UniProt P25105); test: Human Platelet PAF Receptor Assay test (Test A); assay type: binding
T1 construct: endogenous in cells; host or cells: washed platelets from the blood of healthy human donors
T1 sequence (P25105 whole entry): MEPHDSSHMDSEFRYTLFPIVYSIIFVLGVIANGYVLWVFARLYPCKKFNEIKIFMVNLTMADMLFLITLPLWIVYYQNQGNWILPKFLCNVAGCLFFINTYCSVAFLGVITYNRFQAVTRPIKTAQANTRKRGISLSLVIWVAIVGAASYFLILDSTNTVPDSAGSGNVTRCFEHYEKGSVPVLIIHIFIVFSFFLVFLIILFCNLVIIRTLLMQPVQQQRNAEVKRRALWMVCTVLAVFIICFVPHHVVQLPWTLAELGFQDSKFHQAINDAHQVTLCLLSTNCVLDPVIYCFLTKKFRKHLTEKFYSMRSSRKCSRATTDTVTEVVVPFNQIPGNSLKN
Description: Human blood is obtained by venipuncture of healthy, human donors into an anti-coagulant mixture containing 3.15% of trisodium citrate and 20 μg/ml of Prostaglandin I2 (PGI2) in a ratio of blood to anti-coagulant of 9:1. Platelet rich plama (PRP) is prepared by centrifugation (250×g) of the blood for 20 minutes at room temperature. The PRP is then centrifuged (900×g) for 10 minutes at room temperature and the platelet pellet is washed two times with Tris-Tyrode's (TT) solution having a pH of 7.4 and containing 0.25% bovine serum albumin (BSA), and to which has been added PGI2 at a final concentration of […]. The platelets are resuspended at […] in TT/BSA containing 1.4 mM CaCl2.2H2 O and 0.7 mM MgCl2.6H2 O. All of the tests are conducted in duplicate and each of the test compounds is evaluated at concentrations of 100, 50, 1 and 0.1 μM. […]
Each mixture is allowed to incubate at room temperature for one hour, after which time the reaction is terminated by the addition of 500 μl of ice cold TT/BSA and centrifugation (900×g) at 4° C. for 10 minutes. […] An additional 2 ml. of Scintiverse II is then added to the vials and, after mixing, the vials are counted for 1 minute in a liquid scintillation spectrometer. The amount of specific binding is calculated as the difference in cpm between the total bound (^3 H)-PAF and non-specifically bound (^3 H)-PAF. […]

[3] = test system: PAF-mediated bronchoconstriction; test: PAF-induced Pulmonary Inflation Pressure (PIP) Increase test (Test B); assay type: in vivo, guinea pigs; details: Cavia porcellus, po, read-out: Test B ED50
Description: Furthermore, in view of their usefulness as PAF receptor antagonists, the compounds of formula I have been found useful as inhibitors of PAF-mediated bronchoconstriction, which property was evaluated by the PAF-induced Pulmonary Inflation Pressure (PIP) Increase test (Test B) as follows:
Male guinea pigs, weighing between 300 and 400 gm, are anesthetized, after which time trachea tube, carotid and jugular catheters are inserted. The test animal is then force ventilated employing a small animal Harvard respirator and the resistance to lung inflation (PIP) is measured utilizing a pressure transducer and recorder. The test compound is administered orally at 30 minutes prior to, intravenously (jugular) at 5 minutes prior to, or intraarterially at 1 to 5 minutes prior to the introduction of PAF. […] Any blood pressure measurements taken are recorded from a transducer attached to the carotid catheter. […] A reading at 15 minutes after the administration of PAF is termed the endpoint PIP. The effect of the test compound on the PIP response is determined by the difference between the percent increase in maximal PIP over baseline for the test animal to which has been administered PAF and the test compound compared to the test animal to which only PAF has been administered to generate an ED 5 C (dose needed to effect a 50% response).

[4] = test system: PAF-mediated extravasation; test: PAF-induced Extravasation test (Test C); assay type: in vivo, guinea pigs; details: Cavia porcellus, po, read-out: Test C ED50
PAF-induced hypotension = details: rat; for decrease in blood pressure: within 10 sec.
Description: Male Wistar rats, weighing approximately 300 gm, are anesthetized and their carotid arteries cannulated to enable their diastolic and systolic arterial blood pressure measurements to be recorded. PAF is then administered intravenously at either 100 or 500 ng/kg, and the blood pressure drop (within 10 sec.) and recovery time required to reach the pre-injection blood pressure level are measured. […] In order to measure the effectiveness of a compound for both the inhibition of blood pressure decreases and shortening of the recovery time, the test compound is administered intravenously over a range of between 5 and 7 dosage levels (1 or 2 test animals per dose) and between 1 and 5 minutes prior to the introduction of PAF to generate an ED50.

COc1cc(CCc2ccc(C3=NCc4nnc(C)n4-c4sccc43)cc2)cc(OC)c1OC [Example 1, 1-methyl-6-[4-[2-(3,4,5-trimethoxyphenyl)ethyl]phenyl]-4H-thieno[2,3-e][1,2,4]triazolo[3,4-c][1,4]diazepine]
IC50 [1]: 12 µM
IC50 [2]: 0.22 µM
ED50 [3]: 0.8 mg/kg
ED50 [4]: 0.5 mg/kg

1-O-alkyl-2-acetyl-sn-glyceryl-3-phosphoryl-choline [PAF]
decrease in blood pressure (PAF-induced hypotension; 100 ng/kg i.v.): 30%
recovery time (PAF-induced hypotension; 500 ng/kg i.v., to pre-injection blood pressure level): 10 min
decrease in blood pressure (PAF-induced hypotension; 500 ng/kg i.v.): 52%
